Reference: US10080779B2, “Method for increasing the expression of anti-microbial peptides by keratinocytes comprising administering a composition comprising IL-17, TNF-alpha and OSM” (Universite D'Angers, priority 2004, dated 2018)

Tested on: reconstituted human epidermis (RHE)
Experiment: Gene expression profiling of RHE using cDNA macroarrays
Format: cell-based
Conditions: 10 ng/ml OSM 24 h
Procedure: Total RNA was isolated as described for PCR studies. DNase treatment, polyA^+ RNA enrichment, ^33P-labelled cDNA probe synthesis, purification and hybridization to custom Atlas array membranes (Bernard, Pedretti et al. 2002) were performed according to Clontech's recommendations (Clontech, Palo Alto, USA). Membranes were exposed for 5 days to a Molecular Dynamics Storm storage screen and scanned using a phosphorimager scanner (Molecular Dynamics Storm analyser, Amersham Biosciences, Uppsala, Sweden). After local background substraction, average signal intensity from duplicate spots was normalized for differences in probe labelling using the values obtained for housekeeping genes (Bernard et al., 2002). For each gene, the OSM-induced modulation was expressed as the relative expression value for stimulated versus control sample. Arbitrarily, only modulation above 2 was considered significant for confirmation using RT-real time PCR assay.
For gene expression profiling using cDNA macroarrays, 17 days old RHE were grown for 1 day in SkinEthic maintenance medium prior to stimulation in the absence or presence of OSM for 24 h. Total RNA was isolated and cDNA arrays were performed as described above.

With “OSM: human recombinant oncostatin M, cytokine of the IL-6 family” the “S100A7, S100A8, S100A9 and S100 neutrophil protein gene expression” value was “strongly up-regulated”.
